According to US20220160705A1, “METHODS FOR CONTROLLING PROSTAGLANDIN-MEDIATED BIOLOGICAL PROCESSES” (Cornell University, priority 2019, published 2022):
“Also recorded” adds a separate entry of the source.

Experiments:
[1] = system: IRE1α-XBP1 signaling; assay: Xbp1s and Ptges mRNA in peritoneal leukocytes after acetic acid injection (RT-qPCR); type: in vivo, C57BL/6J mice; conditions: i.p. 6 hours and 30 minutes before 0.9% v/v acetic acid; KIRA6 25 mg/kg, MKC8866 20 mg/kg; vs vehicle
Protocol: Total RNA was isolated using RNeasy Mini kit or QIAzol lysis reagent (Qiagen) according to the manufacturer's instructions. RNA (0.1-1 μg) was reverse-transcribed to generate cDNA using the qScript cDNA synthesis kit (Quantabio). Quantitative RT-PCR was performed using PerfeCTa SYBR green fastmix (Quantabio) and TaqMan Universal PCR master mix (Life Technologies) on a QuantStudio 6 Flex real-time PCR system (Applied Biosystems). Normalized gene expression was calculated by comparative threshold cycle method using ACTB or Actb as a control. Xbp1 splicing assays were performed as described by Lee et al. (Proc Natl Acad Sci USA 100, 9946 (Aug. 19, 2003)). PCR products were separated by electrophoresis through a 2.5% agarose gel and visualized by ethidium bromide staining. Primers used in this study are described in Table 9.
(§1) To determine if pharmacological disabling of IRE1α-XBP1 signaling could reduce inflammatory visceral pain, two commercially available inhibitors of IRE1α were employed: the kinase domain-specific inhibitor KIRA6 (25 mg/kg) and the RNAse domain-specific inhibitor MKC8866 (20 mg/kg).
(§2) These inhibitors were independently administered intraperitoneally to C57BL/6J mice 6 hours and 30 minutes before acetic acid injection, and writhing behaviors were recorded for 30 minutes.

[2] = system: C57BL/6J mice; assay: Acetic acid-induced writhing model of inflammatory visceral pain; type: in vivo; conditions: i.p. 6 hours and 30 minutes before 0.9% v/v acetic acid (5 ml/kg); recorded for 30 minutes; KIRA6 25 mg/kg, MKC8866 20 mg/kg, Celecoxib 20 mg/kg; vs vehicle
Protocol: (§3) All behavioral measurements were performed by a blinded observer before and after surgery (postoperative days 1-21) or acetic acid intraperitoneal injection (15-30 min). Animals were acclimated to the testing devices and/or places for 3 days, and baseline measurements were taken for at least 4 consecutive days before the surgery or acetic acid.
Writhing spontaneous pain behaviors were evaluated after intraperitoneal injection of 0.9% acetic acid (v/v, 5 ml/kg). The number of writhing responses was quantified immediately after acetic acid injection for 30 min in 5 min intervals by an observer blinded to genotype. Writings induced acetic acid are overt stretching behaviors indicative of abdominal pain, a phenomenon that is dependent upon mPGES-1 and PGE2 (Kamei et al. J Biol Chem 279, 33684 (Aug. 6, 2004); Trebino et al. Proc Nat Acad Sci USA 100, 9044 (Jul. 22, 2003)).
as §1, §2

[3] = system: C57BL/6J mice; assay: Paw incision model of post-surgical pain, behavioral tests; type: in vivo; conditions: i.p. 6 hours and 30 minutes before paw incision, KIRA6 25 mg/kg, MKC8866 20 mg/kg; for flinching activity after paw incision / grimace score post-surgery / guarding score post-surgery / hind paw weight bearing distribution after paw incision / mechanical hypersensitivity (mechanical threshold) after paw incision / rearing activity after paw incision: Celecoxib 20 mg/kg, vs vehicle; for post-operative pain behaviors: figure legend
Protocol: Plantar incision surgery was performed as described by Pogatzki & Raja (Anesthesiology 99, 1023 (October 2003)). Briefly, mice were anesthetized with isoflurane in oxygen (4% induction, 1.5%-2% for maintenance) and the right hind paw was aseptically cleaned with 10% povidone-iodine solution. Then, a 5 mm incision was made in the glabrous hind-paw skin from the heel to the base of the toes using a No. 11 scalpel and sterile technique. The underlying muscle and ligaments were elevated with a curved forceps and stretched for 6-8 seconds, without incising them. The incision was closed using 5.0 nylon mattress sutures.
as §3
Mice were placed in individual acrylic chambers on an elevated mesh floor for 30-45 min before testing. Two spontaneous pain-relate behaviors were evaluated, rearings and paw flinches. Following the acclimatization period, the number of total vertical rearings and paw flinches were quantified during a 2-min period. Vertical rearings were defined as the number of times that the animal stood supporting its weight on both hind limbs. Vertical rearings are a normal behavior in rodents, thus a reduction of this behavior is indicative of a protective way to prevent pain due to movement, which mimics pain induced by surgeries in humans. Spontaneous flinching of the affected paw was quantified every time that the animal shacked the affected paw without any stimulation. Flinches of the injured paw is a pain-related behavior that is indicative of breakthrough pain, similar to intense spontaneous spike of pain in humans with postoperative pain.
Mechanical hypersensitivity was assessed after quantification of vertical rearings and spontaneous flinching. Mechanical withdrawal thresholds were calculated using the up-down method and applying force with calibrated Von Frey filaments (0.07-g, 0.17-g, 0.40-g, 0.60-g, 1.04-g, 1.37-g, and 2.0-g, Stoeling, Wood Dale, Ill., USA) to the plantar aspect of the paw for 5 seconds. Paw withdraws or flinching in response to a given applied force was noted as a positive response.
Hind paw weight bearing distribution was determined using an incapacitance tester apparatus (Stoelting, Ill., version 5.64). This is a test for non-reflexive behaviors that represents a spontaneous pain-related behavior that mimics postoperative pain behaviors in humans (protection of the surgery site from normal activities). Before surgery, animals were habituated for at least 3 days to the apparatus, in which animals stand with each hind paw resting on individual weight plates inside an acrylic chamber. The apparatus measures the body weight distributed between the two hind paws over a 3 second period and provides the average measurement. The average value of each hind paw was used to determine the weight distribution ratio (ispsilateral/contralateral side). A ratio below one indicates a greater weight bearing on the contralateral paw and was therefore considered as a pain-related behavior.
To determine whether pharmacological targeting of IRE1α could also modulate post-surgical pain. KIRA6 (FIG. 9A-9F) or MKC8866 (FIG. 10) was administered i.p. 6 hours and 30 minutes prior to paw incision surgery, and pain responses were monitored thereafter. […] Consistent with our results using conditional IRE1α-deficient mice, mechanical hypersensitivity remained unaltered upon administration of IRE1α inhibitors (FIGS. 9F and 10F). As a positive control, we administered equimolar amounts (20 mg/kg) of Celecoxib following the same scheme and route described above. […]

SMILES | Ptges expression in peritoneal leukocytes [1] | Xbp1s expression in peritoneal leukocytes [1] | number of writhings after acetic acid injection [2] | flinching activity after paw incision [3] | grimace score post-surgery [3] | guarding score post-surgery [3] | hind paw weight bearing distribution after paw incision [3] | mechanical hypersensitivity (mechanical threshold) after paw incision [3] | rearing activity after paw incision [3] | post-operative pain behaviors [3]
CC(C)(C)c1nc(-c2ccc(NC(=O)Nc3cccc(C(F)(F)F)c3)c3ccccc23)c2c(N)nccn12 [KIRA6] | significantly reduced | significantly reduced | reduced; also recorded: decreased | reduced | significantly reduced | significantly reduced | more balanced | unaltered | unchanged | reduces
COc1cc2c(C)c(CC(=O)N3CCOCC3)c(=O)oc2c(C=O)c1O [MKC8866] | significantly reduced | significantly reduced | reduced; also recorded: decreased | reduced | significantly reduced | significantly reduced | more balanced | unaltered | unchanged | reduces
